# Assay results from ChEMBL document CHEMBL1201862, “PubChem BioAssay data set” (2004).
# Active and inactive are the calls of the source.
# What was measured:
# Kallikrein-7 = Kallikrein-7 (Homo sapiens, UniProt P49862); experiment: Fluorescence Intensity-based biochemical primary high throughput dose response assay to identify activators of kallikrein-7 (K7) zymogen.
# Ion channel NompC = Ion channel NompC (Danio rerio, UniProt Q7T1G6); experiment: Fluorescence counterscreen assay for TRPML3 agonists: dose response cell-based high-throughput screening assay to identify agonists of the transient receptor potential channel N1 (TRPN1). [Related pubchem assays: 1526, 1424, 1448 ]; format: functional
# Ion channel NompC, sequence (Q7T1G6 whole entry): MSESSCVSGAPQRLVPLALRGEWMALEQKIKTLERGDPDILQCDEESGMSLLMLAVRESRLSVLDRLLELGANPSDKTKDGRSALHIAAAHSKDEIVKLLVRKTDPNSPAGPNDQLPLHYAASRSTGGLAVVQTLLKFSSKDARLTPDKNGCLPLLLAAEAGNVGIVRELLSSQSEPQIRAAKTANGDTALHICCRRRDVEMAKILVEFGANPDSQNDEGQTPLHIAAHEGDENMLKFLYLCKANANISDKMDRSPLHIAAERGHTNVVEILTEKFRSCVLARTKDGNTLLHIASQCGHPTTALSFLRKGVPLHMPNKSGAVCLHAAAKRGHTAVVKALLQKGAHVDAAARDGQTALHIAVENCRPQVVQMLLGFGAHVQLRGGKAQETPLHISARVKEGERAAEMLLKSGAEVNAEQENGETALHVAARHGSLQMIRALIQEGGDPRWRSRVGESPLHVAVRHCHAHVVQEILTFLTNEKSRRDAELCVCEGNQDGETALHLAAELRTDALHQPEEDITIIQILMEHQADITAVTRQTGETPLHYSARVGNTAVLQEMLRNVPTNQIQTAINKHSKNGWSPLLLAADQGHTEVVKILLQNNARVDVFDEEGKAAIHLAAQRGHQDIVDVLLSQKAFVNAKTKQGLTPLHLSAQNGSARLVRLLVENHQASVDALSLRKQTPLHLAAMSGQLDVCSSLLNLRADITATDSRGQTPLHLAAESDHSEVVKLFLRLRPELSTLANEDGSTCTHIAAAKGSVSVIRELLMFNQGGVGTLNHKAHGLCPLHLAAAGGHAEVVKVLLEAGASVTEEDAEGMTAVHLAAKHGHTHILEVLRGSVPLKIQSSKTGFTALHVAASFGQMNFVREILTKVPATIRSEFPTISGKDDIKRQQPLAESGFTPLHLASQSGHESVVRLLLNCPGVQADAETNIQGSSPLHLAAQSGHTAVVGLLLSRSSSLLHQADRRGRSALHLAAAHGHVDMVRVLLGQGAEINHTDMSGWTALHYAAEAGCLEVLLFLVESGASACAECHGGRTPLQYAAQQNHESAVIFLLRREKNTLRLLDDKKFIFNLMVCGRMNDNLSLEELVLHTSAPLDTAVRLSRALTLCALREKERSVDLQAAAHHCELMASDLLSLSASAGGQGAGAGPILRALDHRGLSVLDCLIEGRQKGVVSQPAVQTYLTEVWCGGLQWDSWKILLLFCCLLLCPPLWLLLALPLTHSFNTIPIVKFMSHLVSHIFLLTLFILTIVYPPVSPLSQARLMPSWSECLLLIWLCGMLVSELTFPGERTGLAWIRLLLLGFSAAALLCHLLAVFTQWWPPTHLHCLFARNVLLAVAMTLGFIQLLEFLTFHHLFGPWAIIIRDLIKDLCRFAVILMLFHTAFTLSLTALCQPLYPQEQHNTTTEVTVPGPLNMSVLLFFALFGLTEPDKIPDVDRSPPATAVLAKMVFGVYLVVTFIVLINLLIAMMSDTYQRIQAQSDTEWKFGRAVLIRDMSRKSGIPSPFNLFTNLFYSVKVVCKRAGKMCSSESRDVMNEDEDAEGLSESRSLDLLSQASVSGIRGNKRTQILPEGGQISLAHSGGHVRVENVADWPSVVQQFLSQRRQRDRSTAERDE
# Mucolipin-3 = molecular target: T1, Mucolipin-3 (Homo sapiens, UniProt Q8TDD5); experiment: Dose response cell-based high-throughput screening assay for agonists of the transient receptor potential channel ML3 (TRPML3). [Related pubchem assays: 1526, 1424, 1448 ]; format: functional
# T1 sequence (Q8TDD5 whole entry): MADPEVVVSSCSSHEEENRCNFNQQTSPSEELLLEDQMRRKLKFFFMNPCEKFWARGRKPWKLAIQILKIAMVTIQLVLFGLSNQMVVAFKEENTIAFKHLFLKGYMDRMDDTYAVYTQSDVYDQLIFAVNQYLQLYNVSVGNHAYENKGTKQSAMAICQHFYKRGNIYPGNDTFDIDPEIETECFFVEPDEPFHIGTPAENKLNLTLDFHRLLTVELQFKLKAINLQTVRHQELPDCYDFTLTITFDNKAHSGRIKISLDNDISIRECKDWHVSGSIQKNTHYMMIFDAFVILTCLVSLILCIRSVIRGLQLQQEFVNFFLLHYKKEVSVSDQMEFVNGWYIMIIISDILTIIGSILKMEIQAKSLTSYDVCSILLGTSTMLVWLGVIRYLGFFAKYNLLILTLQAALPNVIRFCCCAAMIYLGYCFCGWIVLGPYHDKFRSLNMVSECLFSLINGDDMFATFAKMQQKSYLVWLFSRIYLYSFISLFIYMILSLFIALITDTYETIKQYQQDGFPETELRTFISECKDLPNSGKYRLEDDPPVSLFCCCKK
# Fatty acid synthase [1] = molecular target: T2, Fatty acid synthase (Homo sapiens, UniProt P49327); experiment: FAS thioesterase domain inhibitors, dose response, biochemical, kinetic fluorescence intensity (AID 624326); format: functional;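 also: rate of fluorescence rise from hydrolysis of a fluorogenic O-methyl fluorescein ester substrate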
# T2 sequence (P49327 whole entry, the tested form may be a part): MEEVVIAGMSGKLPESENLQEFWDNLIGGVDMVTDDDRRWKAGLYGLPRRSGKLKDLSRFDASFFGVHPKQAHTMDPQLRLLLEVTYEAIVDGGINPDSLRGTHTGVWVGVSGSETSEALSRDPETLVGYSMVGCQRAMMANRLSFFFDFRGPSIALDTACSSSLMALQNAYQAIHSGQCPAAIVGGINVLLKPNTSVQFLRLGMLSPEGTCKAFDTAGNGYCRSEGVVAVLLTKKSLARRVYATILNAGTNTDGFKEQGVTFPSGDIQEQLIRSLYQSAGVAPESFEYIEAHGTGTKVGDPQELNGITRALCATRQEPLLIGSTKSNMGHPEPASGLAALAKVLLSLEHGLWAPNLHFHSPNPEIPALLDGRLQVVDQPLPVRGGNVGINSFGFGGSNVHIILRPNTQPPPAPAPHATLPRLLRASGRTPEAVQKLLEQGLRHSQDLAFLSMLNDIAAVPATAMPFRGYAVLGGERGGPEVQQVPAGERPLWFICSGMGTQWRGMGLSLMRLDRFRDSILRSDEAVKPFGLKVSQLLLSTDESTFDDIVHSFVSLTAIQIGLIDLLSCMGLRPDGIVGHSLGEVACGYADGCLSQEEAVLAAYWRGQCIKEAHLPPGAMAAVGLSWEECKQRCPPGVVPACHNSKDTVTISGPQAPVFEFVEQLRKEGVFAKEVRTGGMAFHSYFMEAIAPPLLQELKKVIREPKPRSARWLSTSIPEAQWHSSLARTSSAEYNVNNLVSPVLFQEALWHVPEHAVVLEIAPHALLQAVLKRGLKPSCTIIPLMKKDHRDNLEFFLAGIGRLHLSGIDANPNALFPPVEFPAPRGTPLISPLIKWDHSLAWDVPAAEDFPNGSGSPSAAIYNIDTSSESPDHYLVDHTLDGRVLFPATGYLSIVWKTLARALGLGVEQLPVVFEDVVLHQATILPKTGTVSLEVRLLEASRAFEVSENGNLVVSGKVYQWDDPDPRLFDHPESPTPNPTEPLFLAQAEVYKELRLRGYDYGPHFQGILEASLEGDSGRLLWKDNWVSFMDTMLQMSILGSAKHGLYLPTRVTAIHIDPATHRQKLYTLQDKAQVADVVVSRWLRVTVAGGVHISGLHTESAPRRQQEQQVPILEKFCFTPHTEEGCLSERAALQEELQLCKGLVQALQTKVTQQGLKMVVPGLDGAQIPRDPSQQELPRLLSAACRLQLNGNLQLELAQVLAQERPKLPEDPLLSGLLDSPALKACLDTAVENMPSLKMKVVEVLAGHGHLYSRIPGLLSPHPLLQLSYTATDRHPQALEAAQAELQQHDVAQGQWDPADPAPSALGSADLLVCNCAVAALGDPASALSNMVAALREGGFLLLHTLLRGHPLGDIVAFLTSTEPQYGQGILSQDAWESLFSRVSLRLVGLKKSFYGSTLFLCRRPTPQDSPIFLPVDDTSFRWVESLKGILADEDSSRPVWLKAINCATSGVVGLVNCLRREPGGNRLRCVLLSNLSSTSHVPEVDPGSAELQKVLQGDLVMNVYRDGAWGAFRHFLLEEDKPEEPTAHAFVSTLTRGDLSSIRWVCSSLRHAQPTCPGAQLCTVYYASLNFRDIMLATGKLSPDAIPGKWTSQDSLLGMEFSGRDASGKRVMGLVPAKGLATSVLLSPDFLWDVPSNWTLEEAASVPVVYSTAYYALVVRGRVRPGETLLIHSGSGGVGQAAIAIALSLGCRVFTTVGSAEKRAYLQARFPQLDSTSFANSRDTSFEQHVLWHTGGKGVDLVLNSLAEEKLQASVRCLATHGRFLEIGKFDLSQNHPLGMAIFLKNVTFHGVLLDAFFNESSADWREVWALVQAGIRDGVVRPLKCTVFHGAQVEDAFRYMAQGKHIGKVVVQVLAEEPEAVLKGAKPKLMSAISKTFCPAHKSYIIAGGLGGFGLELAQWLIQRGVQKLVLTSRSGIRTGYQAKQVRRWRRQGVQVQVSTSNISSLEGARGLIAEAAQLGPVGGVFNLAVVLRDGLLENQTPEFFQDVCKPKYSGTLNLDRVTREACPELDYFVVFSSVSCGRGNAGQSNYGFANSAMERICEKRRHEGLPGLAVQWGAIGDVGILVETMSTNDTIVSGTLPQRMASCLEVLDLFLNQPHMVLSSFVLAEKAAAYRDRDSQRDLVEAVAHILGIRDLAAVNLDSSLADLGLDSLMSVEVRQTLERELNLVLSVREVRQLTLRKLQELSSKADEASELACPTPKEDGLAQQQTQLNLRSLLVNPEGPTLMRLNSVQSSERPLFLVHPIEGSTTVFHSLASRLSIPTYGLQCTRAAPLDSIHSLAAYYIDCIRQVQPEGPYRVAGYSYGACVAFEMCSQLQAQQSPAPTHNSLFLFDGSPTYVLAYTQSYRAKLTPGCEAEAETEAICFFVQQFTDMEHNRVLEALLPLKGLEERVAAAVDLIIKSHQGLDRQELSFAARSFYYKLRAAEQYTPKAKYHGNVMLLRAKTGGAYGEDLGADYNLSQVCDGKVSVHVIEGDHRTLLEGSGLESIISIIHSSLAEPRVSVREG
# Aminopeptidase N = molecular target: T3, Aminopeptidase N (Plasmodium falciparum FcB1/Columbia, UniProt O96935); experiment: P. falciparum M1AAP inhibitors, biochemical, fluorogenic H-Leu-NHMec substrate, 1536-well (AID 1445); set-up: species or system Plasmodium falciparum 3D7, 3D7
# T3 sequence (O96935 whole entry): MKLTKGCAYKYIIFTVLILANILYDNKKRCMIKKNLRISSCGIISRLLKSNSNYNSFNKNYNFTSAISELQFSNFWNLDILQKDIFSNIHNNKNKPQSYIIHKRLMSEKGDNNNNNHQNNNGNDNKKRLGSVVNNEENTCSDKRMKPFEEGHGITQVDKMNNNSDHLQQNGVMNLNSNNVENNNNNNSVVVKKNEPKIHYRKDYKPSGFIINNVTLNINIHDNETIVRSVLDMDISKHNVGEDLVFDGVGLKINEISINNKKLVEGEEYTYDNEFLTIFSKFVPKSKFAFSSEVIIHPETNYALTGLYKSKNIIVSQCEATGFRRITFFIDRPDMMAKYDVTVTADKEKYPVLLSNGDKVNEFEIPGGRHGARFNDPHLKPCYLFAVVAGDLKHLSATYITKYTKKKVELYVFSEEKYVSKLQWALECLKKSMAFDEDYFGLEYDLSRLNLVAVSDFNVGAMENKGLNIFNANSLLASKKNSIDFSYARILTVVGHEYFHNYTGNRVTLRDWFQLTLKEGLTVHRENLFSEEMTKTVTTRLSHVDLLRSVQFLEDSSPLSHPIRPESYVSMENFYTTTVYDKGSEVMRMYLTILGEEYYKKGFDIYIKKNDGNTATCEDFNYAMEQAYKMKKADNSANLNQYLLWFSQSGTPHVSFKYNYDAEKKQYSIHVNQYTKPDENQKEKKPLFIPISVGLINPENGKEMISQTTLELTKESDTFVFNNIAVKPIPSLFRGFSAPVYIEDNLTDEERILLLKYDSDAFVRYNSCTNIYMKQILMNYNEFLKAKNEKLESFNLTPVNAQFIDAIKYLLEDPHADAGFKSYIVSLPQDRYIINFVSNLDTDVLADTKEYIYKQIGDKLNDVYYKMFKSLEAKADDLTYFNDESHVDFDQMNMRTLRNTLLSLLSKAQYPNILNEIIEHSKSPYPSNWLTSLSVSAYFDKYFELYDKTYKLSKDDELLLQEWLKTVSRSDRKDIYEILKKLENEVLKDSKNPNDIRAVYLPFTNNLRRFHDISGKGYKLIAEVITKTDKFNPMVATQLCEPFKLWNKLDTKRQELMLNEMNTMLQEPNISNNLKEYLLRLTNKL
# [2] = molecular target: T4, Carboxy-terminal domain RNA polymerase II polypeptide A small phosphatase 1 (Homo sapiens, UniProt Q9GZU7); experiment: inhibitors of CTDSP1, concentration-response testing, biochemical assay, absorbance-based, actives from ultra-high-throughput screening (AID 540297); format: functional
# T4 sequence (Q9GZU7 whole entry): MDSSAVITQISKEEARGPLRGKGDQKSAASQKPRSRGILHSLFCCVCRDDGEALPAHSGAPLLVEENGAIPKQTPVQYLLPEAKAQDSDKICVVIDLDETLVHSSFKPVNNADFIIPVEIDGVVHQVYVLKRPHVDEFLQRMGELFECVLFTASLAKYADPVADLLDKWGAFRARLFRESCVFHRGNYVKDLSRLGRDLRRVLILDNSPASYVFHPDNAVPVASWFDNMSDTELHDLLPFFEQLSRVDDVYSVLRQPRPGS
# Fatty acid synthase [3] = molecular target: T2, Fatty acid synthase; experiment: FAS thioesterase domain inhibitors, dose response, biochemical, endpoint fluorescence intensity, uHTS hits (AID 624327); format: functional;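 also: fluorescence from hydrolysis of an O-methyl fluorescein acyl ester substrate by the enzyme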
# [4] = A cytotoxicity screen of small molecule inhibitors of the PhoP region in Salmonella typhi identified in the primary screen. [Related pubchem assays: 1850, 1864, 1985 ]; format: functional
# cells [5] = format: functional, cell-based
# [6] = molecular target: T5, DNA repair and recombination protein RAD54-like (Homo sapiens, UniProt Q92698); experiment: inhibitors of human RAD54 branch migration, confirmation, biochemical, fluorescence, cherry-picked samples, dose series (AID 651657); format: functional
# T5 sequence (Q92698 whole entry): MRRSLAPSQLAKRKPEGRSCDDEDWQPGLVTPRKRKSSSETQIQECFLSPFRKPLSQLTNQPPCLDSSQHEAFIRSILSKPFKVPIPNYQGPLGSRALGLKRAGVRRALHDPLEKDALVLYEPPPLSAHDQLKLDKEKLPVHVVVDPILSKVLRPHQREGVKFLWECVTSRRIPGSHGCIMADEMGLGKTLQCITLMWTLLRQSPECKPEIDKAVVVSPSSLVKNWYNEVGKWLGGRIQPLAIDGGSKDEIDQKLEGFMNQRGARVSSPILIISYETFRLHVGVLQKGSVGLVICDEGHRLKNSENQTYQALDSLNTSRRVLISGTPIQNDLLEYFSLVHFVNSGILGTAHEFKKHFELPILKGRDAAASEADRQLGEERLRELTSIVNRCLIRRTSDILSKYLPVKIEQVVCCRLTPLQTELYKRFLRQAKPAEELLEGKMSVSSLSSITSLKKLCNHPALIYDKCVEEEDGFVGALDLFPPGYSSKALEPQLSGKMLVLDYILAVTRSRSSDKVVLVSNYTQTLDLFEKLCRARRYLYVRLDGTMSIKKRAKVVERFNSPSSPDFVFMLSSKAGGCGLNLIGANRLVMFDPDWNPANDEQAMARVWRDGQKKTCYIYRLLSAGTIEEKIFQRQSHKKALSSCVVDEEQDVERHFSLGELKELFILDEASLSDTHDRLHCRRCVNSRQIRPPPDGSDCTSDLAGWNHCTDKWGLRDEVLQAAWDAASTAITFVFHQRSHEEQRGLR
# cells [7] = format: functional, cell-based; remark: listed apart in the source
# [8] = P. falciparum Dd2 growth inhibitors, dose response, SYBR Green, dry powder samples (AID 1159566); format: functional, cell-based;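 also: potency for growth inhibition with lower SYBR green DNA signal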
# [9] = P. falciparum Dd2 growth inhibitors, dose response, SYBR Green, cherry-picked samples (AID 1159567); format: functional, cell-based
# [10] = P. falciparum ATP4 D1247Y mutant growth inhibitors, dose response, NITD609-resistant line, SYBR Green, dry powder (AID 1159571); format: functional, cell-based;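 also: parasites synchronized at ring stage by sorbitol before testing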
# [11] = P. falciparum 3D7-ScDHODH growth inhibitors, dose response, SYBR Green, dry powder samples (AID 1159570); format: functional, cell-based;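 also: parasite growth measured after 72 hours of compound exposure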
# [12] = HepG2 cell cytotoxicity, dose response, cytotoxicity control, plate reader, dry powder samples (AID 1159569); format: functional, cell-based;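 also: inhibitor potency with signal falling toward the positive control level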
# [13] = molecular target: T6, Probable nicotinate-nucleotide adenylyltransferase (Staphylococcus aureus (strain N315), UniProt P65502); format: functional, Staphylococcus aureus subsp. aureus N315; conditions: read-out: IC50_Mean;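 as to IC50 Mean: confirmatory dose-response retesting of NadD inhibitor hits first found in an ultra-high-throughput screen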
# T6 sequence (P65502 whole entry): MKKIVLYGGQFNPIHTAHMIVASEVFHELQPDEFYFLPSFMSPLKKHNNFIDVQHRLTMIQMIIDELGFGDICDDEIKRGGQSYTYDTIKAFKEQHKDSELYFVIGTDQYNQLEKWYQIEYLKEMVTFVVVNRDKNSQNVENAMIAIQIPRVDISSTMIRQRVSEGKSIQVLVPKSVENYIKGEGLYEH
# [14] = molecular target: T6, Probable nicotinate-nucleotide adenylyltransferase; format: functional, Staphylococcus aureus subsp. aureus N315
# Beta-galactosidase = Beta-galactosidase (Escherichia coli, UniProt Q8VNN2); experiment: beta-galactosidase enzyme inhibitors and activators, dose response, artefact control for CCR6 antagonist project, biochemical, E. coli enzyme, set 3 (AID 504712); format: functional
# Kallikrein-7, sequence (P49862 whole entry): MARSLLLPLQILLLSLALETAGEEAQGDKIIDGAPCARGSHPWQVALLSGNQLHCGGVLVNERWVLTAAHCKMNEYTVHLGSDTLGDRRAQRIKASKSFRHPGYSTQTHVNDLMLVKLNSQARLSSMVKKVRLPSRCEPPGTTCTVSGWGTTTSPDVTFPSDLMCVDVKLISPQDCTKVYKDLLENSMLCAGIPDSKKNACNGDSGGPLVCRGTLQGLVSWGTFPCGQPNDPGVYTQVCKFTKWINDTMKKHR
structure (smiles),measurement,setting,value
Nc1nccnc1C(=O)OCc1nc2sc3c(c2c(=O)[nH]1)CCCC3,EC50,Kallikrein-7,6.32 µM (active)
Cc1cccc(CC2CC(=O)N(C3CCCCC3)C2=O)c1 (configuration not stated),EC50,Ion channel NompC,> 29.9 µM (not active)
same,EC50,Mucolipin-3,3.41 µM (active)
CC1CCCC(C)N1C(=O)CN1CCN(c2nc(-c3ccc(F)cc3)cs2)CC1 (configuration not stated),EC50,Ion channel NompC,> 29.9 µM (not active)
same,EC50,Mucolipin-3,27.4 µM (not active)
O=C(O)c1cc(-c2ccc(/C=N/NC(=S)Nc3ccccc3)o2)ccc1Cl,IC50,Fatty acid synthase [1],16.1 µM (active)
same,IC50,Aminopeptidase N,31.2 µM (active)
same,IC50,[2],12.1 µM (active)
same,IC50,Fatty acid synthase [3],15.8 µM (active)
O=C(CN1CCCC1)Nc1ccc(-c2nc3cc(NC(=O)CN4CCCC4)ccc3o2)cc1,EC50,[4],> 50 µM (active)
same,EC50,cells [5],> 350 µM (not active)
same,AC50,[6],12.5 µM (active)
same,EC50,cells [7],> 350 µM (not active)
Cc1cccn2c(=O)c3cc(C(=O)NC4CCS(=O)(=O)C4)sc3nc12 (configuration not stated),EC50,Kallikrein-7,25.1 µM (inactive)
COc1cccc(NC(=O)N(C)C[C@@H]2Oc3cc(C#Cc4ccc(F)cc4)ccc3S(=O)(=O)N([C@@H](C)CO)C[C@@H]2C)c1,AC50,[8],1.18 µM (active)
same,AC50,[9],2 µM (active)
same,AC50,[10],1.22 µM (active)
same,AC50,[11],1.04 µM (active)
same,AC50,[12],> 100 µM (inactive)
OC[C@@H]1[C@H](c2ccc(C3=CCCC3)cc2)[C@@H](CNC2CCCC2)N1CC1CC1,AC50,[8],0.843 µM (active)
same,AC50,[9],1.52 µM (active)
same,AC50,[10],0.78 µM (active)
same,AC50,[11],1.2 µM (active)
same,AC50,[12],21.1 µM (active)
Cc1c([N+](=O)[O-])cc(N2C(=O)C=CC2=O)cc1[N+](=O)[O-],IC50,[13],6.33 µM (active)
same,IC50,[14],3.77 µM (active)
same,IC50,Beta-galactosidase,> 66.6 µM (inactive)
